Measured values published in PMC12175894 (Science Advances, 2025).
“Also recorded” adds a separate entry of the source.

What was measured:
5-HT1AR wildtype [1] = biological target: T1, 5-HT1AR wildtype (Homo sapiens, UniProt P08908); assay: GloSensor inhibition of cAMP accumulation in HEK293AΔGs; type: cell-based
T1 construct: host or cells: HEK293T, HEK293A, HEK293AΔGs, HEK293AΔGi/o, HEK293AΔARRB1/B2
T1 sequence (P08908 1-422): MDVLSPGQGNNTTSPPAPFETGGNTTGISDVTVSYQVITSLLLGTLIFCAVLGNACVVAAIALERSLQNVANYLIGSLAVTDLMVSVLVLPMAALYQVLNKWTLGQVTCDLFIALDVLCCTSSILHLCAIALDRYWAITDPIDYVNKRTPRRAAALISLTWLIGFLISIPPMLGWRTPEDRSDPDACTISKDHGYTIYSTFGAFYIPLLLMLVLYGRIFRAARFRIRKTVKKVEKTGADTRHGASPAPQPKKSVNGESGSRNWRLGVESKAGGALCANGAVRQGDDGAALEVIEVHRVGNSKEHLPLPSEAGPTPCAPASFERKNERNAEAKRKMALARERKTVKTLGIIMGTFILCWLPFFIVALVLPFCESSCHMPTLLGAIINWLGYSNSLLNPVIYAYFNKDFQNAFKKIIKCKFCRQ

5-HT1AR wildtype [2] = biological target: T1, 5-HT1AR wildtype; assay: GloSensor cAMP accumulation in HEK293AΔGi/o; type: cell-based; conditions: for Emax: read-out: Emax [% ± SEM], cAMP accumulation
5-HT1AR wildtype [3] = biological target: T1, 5-HT1AR wildtype; assay: β-arrestin 2 recruitment, enhanced bystander BRET in HEK293T with GRK2; type: cell-based; conditions: for Emax: HEK-293T, read-out: Emax [% ± SEM], β-arrestin 2 recruitment
5-HT1AR = biological target: T2, 5-HT1AR (Homo sapiens, UniProt P08908); assay: BRET-based cAMP assay (CAMYEL biosensor) in CHO-K1 cells; type: cell-based; conditions: inhibition of cAMP accumulation, CAMYEL, fig. S1C, in words
T2 sequence (P08908 1-422): T1 sequence (P08908 1-422)

[4] = biological target: human WT 5-HT1AR with C-terminal ARMS2-PK2 (human) (UniProt P08908); assay: split reporter
[5] = Metabolic stability with rat liver microsomes; type: in vitro ADME; conditions: after 1 h incubation
male C56BL/6 mice = assay: 52°C hot plate; type: in vivo, mouse; conditions: wild-type mice, 10 mg/kg
5-HT1AR KO mice = assay: 52°C hot plate in 5-HT1AR KO mice; type: in vivo, mouse; conditions: 10 mg/kg
5-HT1AR wt = biological target: T3, 5-HT1AR wt (Homo sapiens, UniProt P08908); assay: Radioligand competition, displacement of [3H]WAY100635; type: binding; conditions: fig. S1C, in words
T3 construct: host or cells: HEK293T, transient; membranes
T3 sequence (P08908 1-422): T1 sequence (P08908 1-422)

[6] = read-out: Emax [% ± SEM], inhibition of cAMP accumulation

Compound: O=C1CCc2ccc(OCCCCN3CCN(c4cccc(Cl)c4Cl)CC3)cc2N1 [aripiprazole]
- Emax (5-HT1AR wildtype [1]; read-out: Emax [% ± SEM], inhibition of cAMP accumulation, HEK293AΔGs, wildtype, relative to serotonin): 90 ± 9%
- Emax (5-HT1AR wildtype [2]): < 5%

Compound: O=C1Cc2cc(CCN3CCN(c4nsc5ccccc45)CC3)c(Cl)cc2N1 [ziprasidone]
- lower potency compared to ST171, Gi/o pathway (5-HT1AR wildtype [1]; HEK293AΔGs): more than 70 fold
- EC50 (5-HT1AR wildtype [1]; HEK293AΔGs, wildtype, read-out: EC50 [nM ± SEM], inhibition of cAMP accumulation): 370 ± 140 nM
- Emax (5-HT1AR wildtype [1]; [6]): 57 ± 7%
- Emax (5-HT1AR wildtype [2]): < 5%
- Emax (5-HT1AR wildtype [3]): < 5%

Compound: O=C1CC2(CCCC2)CC(=O)N1CCCCN1CCN(c2ncccn2)CC1 [buspirone]
- Emax (5-HT1AR wildtype [1]; [6]): 58 ± 1%
- Emax (5-HT1AR wildtype [2]): < 5%
- Emax (5-HT1AR wildtype [3]): < 5%

Compound: CSc1ccccc1OCCNCCCOc1ccc2c(c1)NC(=O)CO2 [TA48]
- potency and efficacy / receptor activation relative to ST171 (SAR study) (5-HT1AR): considerable reduction of potency and efficacy

Compound: β-arrestin 2 labeled with the enzyme acceptor (from UniProt P32121 1-409) (natural protein)
- Emax of recruitment with ST171, elevated GRK2 (% of serotonin) [4]: 15%
- Emax of recruitment with ST171, native GRK2 (% of serotonin) [4]: < 5%

Compound: CCCN(CCc1cccs1)[C@H]1CCc2c(O)cccc2C1 [rotigotine, reference compound]
- intact substrate remaining [5]: < 15%

Compound: CN1CC[C@]23c4c5ccc(O)c4O[C@H]2[C@@H](O)C=C[C@H]3[C@H]1C5 [morphine]
- response latency, 52°C hot plate (male C56BL/6 mice): significantly increased the response latency
- response latency, hot plate in 5-HT1AR KO mice (5-HT1AR KO mice): significantly increased the response latency

Compound: COc1ccccc1OCCCNCCCOc1ccc2c(c1)NC(=O)CO2 [TA12]
- 5-HT1AR binding relative to ST171 (SAR study) (5-HT1AR wt): reduced binding affinity; also recorded: attenuation of binding
- potency and efficacy / receptor activation relative to ST171 (SAR study) (5-HT1AR): attenuation of binding and receptor activation

Compound: CCN(CC)C(=O)N[C@H]1C=C2c3cccc4[nH]cc(c34)C[C@H]2N(C)C1 [(S)-(-)lisuride, (S)-(−)-lisuride]
- Emax [% ± SEM], inhibition of cAMP accumulation (5-HT1AR wildtype [1]; HEK293AΔGs, wildtype, relative to serotonin): 68 ± 4%
- Emax [% ± SEM], cAMP accumulation (5-HT1AR wildtype [2]; HEK293AΔGi/o, wildtype, relative to serotonin): 29 ± 4%
- Emax [% ± SEM], β-arrestin 2 recruitment (5-HT1AR wildtype [3]; HEK293T with GRK2, wildtype, relative to serotonin): 46 ± 3%
